Assay results: article PMC12021911, “Comparative evaluation of antimicrobial peptides: effect on formation, metabolic activity and viability of Klebsiella pneumoniae biofilms” (Frontiers in Microbiology, 2025)
Converted amounts (≈) assume the structure as drawn. Read-outs that look alike come from different tables or passages of the source.

How the values were obtained:
Assay type in all cases: cell-based, Klebsiella pneumoniae
K. pneumoniae 17349 [1] = experiment: microbe, parasite or virus in culture
Procedure: (§1) Three different strains of K. pneumoniae were investigated in this study which were originally isolated from a human, a pig and a dog (Table 2) and characterized in previous studies ([Krieger et al., 2021]; [Krieger et al., 2022]). Minimum inhibitory concentration (MIC) values were determined according to EUCAST guidelines by microdilution test and are shown in Supplementary Table S1.
(§2) Table S1 Minimum inhibitory concentration (MIC) values of the three K. pneumoniae strains,
(§3) determined according to EUCAST guidelines by microdilution test.
(§4) MIC [µg/mL] of indicated antibiotics

[2] = system: K. pneumoniae 42KC-108224-1; experiment: microbe, parasite or virus in culture
Procedure: as §1, §2, §3, §4

K. pneumoniae IMT40061 [3] = experiment: microbe, parasite or virus in culture
Procedure: as §1, §2, §3, §4

[4] = system: all three K. pneumoniae strains; experiment: crystal violet assay, biofilm formation, statements on all three strains; conditions: for biofilm mass, % of the untreated control: all three strains, concentration not given
Procedure: (§5) To quantify biofilm formation, the crystal violet assay was done as described previously ([Sager et al., 2015]). Specifically, bacteria were grown in 10 mL BHI broth for 18 h at 37°C on a shaking platform (120 rpm). Subsequently 100 μL of a 1:100 dilution of this overnight culture in BHI was transferred to 96-well plates and incubated for 24 h at 37°C. Wells with BHI broth only were used as blank. Five replicates were investigated per strain. After incubation the suspension was discarded, plates were washed three times with tap water and air-dried. Subsequently, 100 μL of 1% crystal violet (T123.1, Th. Geyer GmbH & Co. KG, Renningen, Germany) in distilled water was added to each well and incubated for 15 min at room temperature before rinsing the plates four times with tap water and air-drying them again. One hundred μL of 99% ethanol were added to each well for 15 min at room temperature to dissolve the remaining crystal violet. Subsequently, the optical density at 540 nm (OD540) was measured using the BioTek Synergy H1 microplate reader to quantify biofilm mass remaining in the wells. OD values of the blank were subtracted from all the samples. Each experiment was conducted three times.
(§6) To determine the effect of the AMPs on biofilm formation of K. pneumoniae, a standardized bacterial suspension and serial dilutions of antimicrobial agents were incubated together as conducted for determination of planktonic growth. After incubation the crystal violet assay was performed as described above. The percentage of biofilm formation was calculated based on the growth control. The experiment was conducted at least three times.

[5] = system: K. pneumoniae 42KC-108224-1; experiment: crystal violet assay, biofilm formation upon AMP treatment; conditions: for biofilm mass (crystal violet), percentage of the growth control: 16 μg/mL, 22 h, 37°C, 50% BHI, mean, n ≥ 3; for biofilm formation inhibited to: concentration not given
Procedure: as §5, §6

K. pneumoniae IMT40061 [6] = experiment: as above; conditions: 16 μg/mL; 22 h, 37°C, 50% BHI; mean, n ≥ 3
Procedure: as §5, §6

[7] = system: K. pneumoniae 42KC-108224-1; experiment: fluorescence assay on mature biofilms (SYTO 9 / propidium iodide); conditions: 24 h treatment of mature biofilm; strongest reduction, concentration not given
Procedure: The proportion of living and dead bacteria was determined using the fluorescence assay FilmTracer™ LIVE/DEAD biofilm viability kit (L10316, Life Technologies GmbH, Darmstadt, Germany). A bacterial count of 2 × 10^7 CFU/mL was inoculated in 50% BHI broth, 100 μL were added to a 96-well plate in duplicate and plates were incubated for 22 h at 37°C. Wells containing only BHI broth were used as blank. After incubation, the supernatant was discarded and plates were washed three times with sterile PBS. […] After incubation for 24 h at 37°C and washing three times with sterile PBS, 50 μL filter-sterilized water containing 0.15 μL each of SYTO™ 9 stain and propidium iodide stain was added to each well. Plates were incubated for 20 min at room temperature in the dark. The staining solution was discarded and the plates were washed three times with sterile PBS. The fluorescence intensity of the SYTO™ 9 stain (λex = 470 nm, λem = 500 nm) and the propidium iodide stain (λex = 490 nm, λem = 635 nm) were measured on a BioTek Synergy H1 microplate reader and corrected for the blank values. The percentage of fluorescence intensity was calculated based on the negative control. The SYTO™ 9/propidium iodide ratio was calculated. The experiment was conducted at least three times.

K. pneumoniae 17349 [8] = experiment: crystal violet assay, biofilm formation upon AMP treatment; conditions: 22 h, 37°C, 50% BHI, mean, n ≥ 3
Procedure: as §5, §6

K. pneumoniae 17349 [9] = experiment: resazurin assay, metabolic activity of biofilm; conditions: 16 μg/mL; 22 h co-incubation, 37°C, 50% BHI; n ≥ 3
Procedure: Biofilm viability was quantified using the resazurin assay as previously described ([Fontoura et al., 2023]) with minor modifications. A standardized bacterial suspension and serial dilutions of antimicrobial agents were incubated together as conducted for determination of planktonic growth and biofilm formation. After incubation, the bacterial suspension was discarded and plates were washed three times with sterile PBS. One hundred microliters of sterile PBS containing 2 μL of resazurin (6.75 mg/mL, in sterile PBS; R7017-1G, Merck KGaA, Darmstadt, Germany) were added per well. After an incubation of 3–5 h at 37°C fluorescence intensity was measured with an excitation wavelength (λex) of 528 nm and an emission wavelength (λem) of 645 nm by BioTek Synergy H1 microplate reader. Measured values of the blank were subtracted from all the samples. The percentage of metabolic activity was calculated based on the growth control. The experiment was conducted at least three times.

K. pneumoniae 17349 [10] = experiment: fluorescence assay on mature biofilms (SYTO 9 / propidium iodide); conditions: 24 h treatment of mature biofilm; concentration not given
[11] = Klebsiella pneumoniae, 42KC1082241
[12] = Klebsiella pneumoniae, IMT40061, EUCAST guidelines, microdilution test, read-out: MIC
[13] = Klebsiella pneumoniae, 17349, EUCAST guidelines, microdilution test, read-out: MIC
[14] = Klebsiella pneumoniae, 42KC1082241, EUCAST guidelines, microdilution test, read-out: MIC
[15] = EUCAST guidelines, microdilution test

In the case of `C[C@H]1COc2c(N3CCN(C)CC3)c(F)cc3c(=O)c(C(=O)O)cn1c23` [Levofloxacin], the MIC (K. pneumoniae 17349 [1]; Klebsiella pneumoniae, 17349) is reported as under 0.0625 µg/mL, the MIC [2, 11] is reported as under 0.0625 µg/mL and the MIC (K. pneumoniae IMT40061 [3]; [12]) is reported as over 8 µg/mL.
`C[C@@H](O)[C@H]1C(=O)N2C(C(=O)O)=C(S[C@@H]3CN[C@H](C(=O)N(C)C)C3)[C@H](C)[C@H]12` [Meropenem] was tested, and the MIC (K. pneumoniae 17349 [1]; Klebsiella pneumoniae, 17349) was under 0.125 µg/mL, the MIC [2, 11] was under 0.125 µg/mL and the MIC (K. pneumoniae IMT40061 [3]; Klebsiella pneumoniae, IMT40061) was under 0.125 µg/mL.
Work on `COc1c(N2C[C@@H]3CCCN[C@@H]3C2)c(F)cc2c(=O)c(C(=O)O)cn(C3CC3)c12` [Moxifloxacin] yielded an MIC (K. pneumoniae 17349 [1]; [13]) of 0.25 µg/mL (≈ 0.623 µM), an MIC [2, 14] of 0.0625 µg/mL (≈ 0.156 µM) and an MIC (K. pneumoniae IMT40061 [3]; [12]) of over 4 µg/mL.
Compound `CCN1CCN(C(=O)N[C@@H](C(=O)N[C@@H]2C(=O)N3[C@@H]2SC(C)(C)[C@@H]3C(=O)O)c2ccccc2)C(=O)C1=O` [Piperacillin] has an MIC (K. pneumoniae 17349 [1]; [13]) of 2 µg/mL (≈ 3.86 µM), an MIC [2, 14] of 4 µg/mL (≈ 7.73 µM) and an MIC (K. pneumoniae IMT40061 [3]; [12]) of over 64 µg/mL.
`NC[C@H]1O[C@H](O[C@H]2[C@H](O)[C@@H](O[C@H]3O[C@H](CO)[C@@H](O)[C@H](N)[C@H]3O)[C@H](N)C[C@@H]2N)[C@H](N)C[C@@H]1O` [Tobramycin] showed an MIC (K. pneumoniae 17349 [1]; [13]) of under 0.125 µg/mL, an MIC [2, 14] of 0.25 µg/mL (≈ 0.535 µM) and an MIC (K. pneumoniae IMT40061 [3]; [12]) of 4 µg/mL (≈ 8.56 µM).
In the case of Ampicillin/Sulbactam, the MIC (K. pneumoniae 17349 [1]; [15]) is reported as 1/4, the MIC [2, 15] is reported as 8/4 and the MIC (K. pneumoniae IMT40061 [3]; [15]) is reported as > 32/4.
For “GIINTLQKYYCRVRGGRCAVLSCLPKEEQIGKCSTRGRKCCRRKK [hbD3, Human defensin, purchased from PeptaNova GmbH]”, the “biofilm mass, % of the untreated control” value [4] was “less than 40%” and the “biofilm mass reduced to” value ([4]; concentration and strain not given) was at most 28%.
In the case of “KRFRIRVRV-NH2 [compound 1037, Synthetic antimicrobial peptide]”, the “biofilm mass (crystal violet), percentage of the growth control” value [5] is reported as 53%, the “biofilm mass (crystal violet), percentage of the growth control” value (K. pneumoniae IMT40061 [6]) is reported as 67% and the “viable biofilm mass (SYTO™ 9)” value [7] is reported as 43%.
“LLGDFFRKSKEKIGKEFKRIVQRIKDFLRNLVPRTES-OH [LL-37, Human cathelicidin, purchased from GENAXXON bioscience GmbH]” was tested, and the “biofilm mass, % of the untreated control” value [4] was “less than 40%”, the “biofilm mass (crystal violet), percentage of the growth control” value (K. pneumoniae 17349 [8]; 0.5 μg/mL) was 140% and the “biofilm mass (crystal violet), percentage of the growth control” value (K. pneumoniae 17349 [8]; 16 μg/mL) was 13%. The “metabolic activity of the biofilm (resazurin), percentage of the growth control” value (K. pneumoniae 17349 [9]) was 30%.
In the case of Piperacillin/Tazobactam, the MIC (K. pneumoniae 17349 [1]; [15]) is reported as 1/4, the MIC [2, 15] is reported as 1/4 and the MIC (K. pneumoniae IMT40061 [3]; [15]) is reported as > 64/4.
With “VDKPPYLPRPRPPROIYNO-NH2 [Onc72, Insect-derived proline-rich AMP, derivate of Oncopeltus antibacterial peptide 4]” the “biofilm mass (crystal violet), percentage of the growth control” value [5] was 36%, the “biofilm formation inhibited to” value [5] was 36% and the “viable biofilm mass (SYTO™ 9)” value [7] was 51%.
In the case of “VDKPPYLPRPRPPRrIYNr-NH2 [Onc112, Insect-derived proline-rich AMP, derivate of Oncopeltus antibacterial peptide 4]”, the “biofilm mass (crystal violet), percentage of the growth control” value [5] is reported as 26%, the “biofilm formation inhibited to” value [5] is reported as 26% and the “viable biofilm mass (SYTO™ 9)” value [7] is reported as 55%.
With “VRLIVAVRIWRR-NH2 [compound 1018, Synthetic antimicrobial peptide]” the “biofilm mass (crystal violet), percentage of the growth control” value [5] was 54%, the “biofilm mass (crystal violet), percentage of the growth control” value (K. pneumoniae IMT40061 [6]) was 61% and the “viable biofilm mass (SYTO™ 9)” value (K. pneumoniae 17349 [10]) was “less than 30%”. The “viable biofilm mass (SYTO™ 9)” value [7] was “less than 30%”.
